Numbered stars: 1 amine (or outer) side, 2 acyl side, 3 side chain; on linkers, the order of the positions; unused ones are H or OH. Bridge positions count the residues as written; N and C are the ends. Square brackets hold non-standard residues; d marks the D form. Peptide text beside a SMILES is read from it. * marks the point of attachment. ξ: configuration not given here. Piperazine(2S-CO,4-Me) = CN1CCN[C@H](C(=O)O)C1; Phe(3-Cl) = N[C@@H](Cc1cccc(Cl)c1)C(=O)O; Phe(3-Me) = Cc1cccc(C[C@H](N)C(=O)O)c1; X4 = O=C1CN([*:1])[C@H](C(=O)[*:2])CN1; NH(4-Cl-2-F-phenyl) = Fc1cc(Cl)ccc1N*; Pro(4R-Me) = C[C@H]1CN[C@H](C(=O)O)C1; Hyp = O=C(O)[C@@H]1C[C@@H](O)CN1; NH(4-Me-phenyl) = Cc1ccc(N*)cc1; ξNMeThr = CNC(C(=O)O)[C@@H](C)O; aThr = C[C@H](O)[C@H](N)C(=O)O; CO = O=C([*:1])[*:2]; X2 = Fc1cc(N*)ccc1Cl
Experiments:
Sa-ClpP = target: T1, Sa-ClpP (Staphylococcus aureus, UniProt Q2G036); assay: ADEP displacement fluorescence polarization assay; format: binding, S. aureus; details: displacement of FP probe ADEP 2591 from Sa-ClpP
T1 construct: made in house; host or cells: E. coli BL21 (DE3)
Experimental: A fluorescence polarization (FP) assay was used to determine the activity of the disclosed compounds in displacing an ADEP analogue from ClpP. Briefly, the assay was performed in black 384 well, flat bottom, low volume plates (Greiner Bio-One, Monroe, N.C., catalog #784076). 20 μL of a pre-equilibrated (1 hr, room temperature) master mix (15 μM Sa-ClpP, 2% DMSO (v/v) and 50 nM FP probe in TrisHCl, pH 8.0)) was pipetted into each well using a Well-Mate (Thermo Scientific, Waltham, Mass.). Sa-ClpP was prepared as described above for the ClpP activation assay. The FP probe was ADEP 2591 (structure shown above). The ADEP 2591 comprises a TAMRA fluorophore linked to a core based on modified ADEP 2378 via a short alkyl linker. Using pin transfer, approximately 0.4 μL (2% v/v DMSO) of each compound or control was added per well. After addition of compounds and controls, plates were allowed to incubate for an additional 120 minutes at room temperature. All assays were performed in triplicate. Polarization was monitored using an EnVision Multilabel reader (Perkin-Elmer, Waltham, Mass.) by exciting the FP probe at 530±25 nm, and monitoring fluorescence intensity of both parallel and perpendicular polarized light at 579±25 nm. Readout was in millipolarization units (mP).
Signal gain and G factors were determined in wells containing 200 μM ADEP 2378, which had been previously verified (data not shown) as containing completely unbound ADEP 2591. Data collected was normalized to values obtained from positive (200 μM ADEP 2378) or negative (DMSO) controls. Curves were fit with non-linear regression using the equation “log [inhibitor] vs. Response-variable slope (four parameters)-symmetrical” in the program Prism 6 (GraphPad Software, La Jolla, Calif. USA, www.graphpad.com). The structures for ADEP 2378 and ADEP 2591 are shown above. ADEP 2378 is (E)-N—((S)-1-(((2R,6S,8aS,14aS,20S,23aS)-2,6-dimethyl-5,8,14,19,23-pentaoxooctadecahydro-1H,5H,14H,19H-pyrido[2,1-i]dipyrrolo[2,1-c:2′,1′-1][1]oxa[4,7,10,13]tetraazacyclohexadecin-20-yl)amino)-1-oxo-3-phenylpropan-2-yl)pent-2-enamide. ADEP 2591 is 5-(3-(3-((6S,9S,11aS,17S,20aS)-6,10-dimethyl-5,8,11,16,20-pentaoxo-17-((S)-2-((E)-pent-2-enamido)-3-phenylpropanamido)hexadecahydro-1H,5H,16H-dipyrrolo[2,1-c:2′,1′-1][1]oxa[4,7,10,13]tetraazacyclohexadecin-9-yl)propyl)thioureido)-2-(6-(dimethylamino)-3-(dimethyliminio)-3H-xanthen-9-yl)benzoate.

[1] = Plasma protein binding, rapid equilibrium dialysis; format: in vitro ADME, mouse
Experimental: This assay determines plasma protein binding of a drug/compound and free drug concentration in plasma using rapid equilibrium dialysis, which allow the aqueous component of plasma containing the free drug/compound through a dialysis membrane (MWCO˜8,000).
Solutions were prepared at 10 mM in DMSO. Dulbecco's phosphate buffered saline (DPBS; pH 7.4) was obtained from Invitrogen (Carlsbad, Calif.). Single-Use RED (rapid equilibrium dialysis) device was obtained from Thermo scientific (Rockford, Ill.). Human plasma was obtained from Innovative Research INC (Novi, Michigan, Ill).
Sample preparation for plasma protein binding was modified from Waters' method. (Waters et al. (2008) J. Pharm. Sci. 97(10): 4586-95). The Teflon base plate with the RED inserts (MWCO 8 K) were allowed to use without any pre-condition the membrane inserts. Human plasma was thawed and centrifuged at 1000 rpm for 2 min to remove any particulates. Each compound was prepared at 10 μM in human plasma. This was done by adding 1 μL, of drug solution (10 mM in DMSO) to 1000 μL, of human plasma (0.1% DMSO). Spiked plasma solutions (300 μL) were placed into the sample chamber (indicated by the red ring) and 500 μL, of DPBS into the adjacent chamber. The plate was sealed and incubated at 37° C. on an orbital shaker (100 rpm) for 4 hours. After incubation, the seal was removed from the RED plate and the volume of the insert confirmed—little to no volume change occurred. Aliquots (50 μL) were removed from each side of the insert and dispensed into a 96-well deep plate. An equal volume of blank plasma or DPBS was added to the required wells to create analytically identical sample matrices (matrix matching). To each sample 200 μL, of ACN containing 4 μg/mL warfarin IS was added. All of the plates were sealed and mixed well at 600 rpm for 10 min and were centrifuged at 4000 rpm for 20 min. The supernatants (120 μL) were transferred to analytical plates for analysis by LCMS. Conditions for Waters ACQUITY-UPLC-MS-UV system were described separately. The test compound concentrations were quantified in both buffer and plasma chambers via peak areas relative to the internal standard. The percentage of the test compound bound to plasma was calculated on following equations: % Free=(Concentration buffer chamber/concentration plasma chamber)×100% and % Bound=100%-% Free.

T1 sequence (Q2G036 whole entry): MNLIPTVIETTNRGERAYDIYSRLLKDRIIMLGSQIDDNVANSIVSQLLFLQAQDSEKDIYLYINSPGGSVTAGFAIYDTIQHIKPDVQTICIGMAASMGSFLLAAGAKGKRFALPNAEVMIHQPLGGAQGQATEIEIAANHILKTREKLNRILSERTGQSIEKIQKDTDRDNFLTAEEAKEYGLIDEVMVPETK

Structure (SMILES)	IC50 (Sa-ClpP)	Mouse ([1]; mouse, 4 h, 10 μM, pH 7.4)	Mouse ([1]; plasma binding, % Bound, mouse plasma)
Cc1cccc(C[C@H](NC(=O)Nc2ccc3c(c2)OCCO3)C(=O)N[C@H]2COC(=O)[C@@H]3C[C@@H](C)CN3C(=O)[C@H](C)NC(=O)[C@@H]3CCCCN3C(=O)[C@@H]3CCCN3C2=O)c1 [Compound 22, (S)-2-(3-(2,3-DIHYDROBENZO[B][1,4]DIOXIN-6-YL)UREIDO)-N-((2R,6S,8AS,14AS,20S,23AS)-2,6-DIMETHYL-5,8,14,19,23-PENTAOXOOCTADECAHYDRO-1H,5H,14H,19H-PYRIDO[2,1-I]DIPYRROLO[2,1-C:2′,1′-L][1]OXA[4,7,10,13]TETRAAZACYCLOHEXADECIN-20-YL)-3-(M-TOLYL)PROPANAMIDE]	4.12 ± 0.29 µM	98.4 ± 0.1%	–
Cc1cccc(C[C@H](NC(=O)Nc2ccc(Cl)cc2F)C(=O)N[C@@H]2C(=O)N3C[C@H](O)C[C@H]3C(=O)N3CCN(C)C[C@H]3C(=O)N[C@@H](C)C(=O)N3C[C@H](C)C[C@H]3C(=O)O[C@H]2C)c1 [Compound 31, (S)-2-(3-(4-CHLORO-2-FLUOROPHENYL)UREIDO)-N-((6AS,8R,12S,13S,15AS,17R,21S,23AS)-8-HYDROXY-2,13,17,21-TETRAMETHYL-6,11,15,20,23-PENTAOXOOCTADECAHYDRO-2H,6H,11H,15H-PYRAZINO[2,1-I]DIPYRROLO[2,1-C:2′,1′-L][1]OXA[4,7,10,13]TETRAAZACYCLOHEXADECIN-12-YL)-3-(M-TOLYL)PROPANAMIDE] ({NH(4-Cl-2-F-phenyl)-CO}-[Phe(3-Me)][aThr][Hyp][Piperazine(2S-CO,4-Me)]A[Pro(4R-Me)]; ester 2-C)	3.07 ± 0.07 µM	96.9 ± 6.9%	–
Cc1cccc(C[C@H](NC(=O)Nc2ccc(Cl)c(F)c2)C(=O)N[C@H]2COC(=O)[C@@H]3C[C@@H](C)CN3C(=O)[C@H](C)NC(=O)[C@@H]3CN(C)CCN3C(=O)[C@@H]3CCCN3C2=O)c1 [Compound 14, (S)-2-(3-(4-CHLORO-3-FLUOROPHENYL)UREIDO)-3-(M-TOLYL)-N-((6AS,12S,15AS,17R,21S,23AS)-2,17,21-TRIMETHYL-6,11,15,20,23-PENTAOXOOCTADECAHYDRO-2H,6H,11H,15H-PYRAZINO[2,1-I]DIPYRROLO[2,1-C:2′,1′-L][1]OXA[4,7,10,13]TETRAAZACYCLOHEXADECIN-12-YL)PROPANAMIDE] ({X2-CO}-[Phe(3-Me)]SP[Piperazine(2S-CO,4-Me)]A[Pro(4R-Me)]; ester 2-C)	5.19 ± 0.2 µM	98.9 ± 0.1%	–
Cc1cccc(C[C@H](NC(=O)Nc2ccc(Cl)cc2F)C(=O)N[C@@H]2C(=O)N3CCC[C@H]3C(=O)N(C)C([C@@H](C)O)C(=O)N[C@@H](C)C(=O)N3C[C@H](C)C[C@H]3C(=O)O[C@H]2C)c1 (stereo partly drawn) [Compound 5] ({NH(4-Cl-2-F-phenyl)-CO}-[Phe(3-Me)][aThr]P[ξNMeThr]A[Pro(4R-Me)]; ester 2-C)	4.4 ± 0.4 µM	98.6 ± 0.5%	–
Cc1cccc(C[C@H](NC(=O)Nc2ccc3c(c2)OCO3)C(=O)N[C@H]2COC(=O)[C@@H]3C[C@@H](C)CN3C(=O)[C@H](C)NC(=O)[C@@H]3CCCCN3C(=O)[C@@H]3CCCN3C2=O)c1 [Compound 23, (S)-2-(3-(BENZO[D][1,3]DIOXOL-5-YL)UREIDO)-N-((2R,6S,8AS,14AS,20S,23AS)-2,6-DIMETHYL-5,8,14,19,23-PENTAOXOOCTADECAHYDRO-1H,5H,14H,19H-PYRIDO[2,1-I]DIPYRROLO[2,1-C:2′,1′-L][1]OXA[4,7,10,13]TETRAAZACYCLOHEXADECIN-20-YL)-3-(M-TOLYL)PROPANAMIDE]	1.96 ± 0.12 µM	96.9 ± 0.1%	–
Cc1cccc(C[C@H](NC(=O)Nc2ccc(Cl)cc2F)C(=O)N[C@@H]2C(=O)N3CCC[C@H]3C(=O)N3CC(=O)NC[C@H]3C(=O)N[C@@H](C)C(=O)N3C[C@H](C)C[C@H]3C(=O)O[C@H]2C)c1 [Compound 20, (S)-2-(3-(4-CHLORO-2-FLUOROPHENYL)UREIDO)-3-(M-TOLYL)-N-((6AS,12S,13S,15AS,17R,21S,23AS)-13,17,21-TRIMETHYL-3,6,11,15,20,23-HEXAOXOOCTADECAHYDRO-2H,6H,11H,15H-PYRAZINO[2,1-I]DIPYRROLO[2,1-C:2′,1′-L][1]OXA[4,7,10,13]TETRAAZACYCLOHEXADECIN-12-YL)PROPANAMIDE] ({NH(4-Cl-2-F-phenyl)-CO}-[Phe(3-Me)][aThr]P[X4]A[Pro(4R-Me)]; ester 2-C)	4.21 ± 0.2 µM	98.7 ± 0.1%	–
C[C@@H]1C[C@H]2C(=O)O[C@@H](C)[C@H](NC(=O)[C@H](Cc3cccc(Cl)c3)NC(=O)Nc3ccc(Cl)cc3F)C(=O)N3CCC[C@H]3C(=O)N3CCN(C)C[C@H]3C(=O)N[C@@H](C)C(=O)N2C1 [Compound 33] ({NH(4-Cl-2-F-phenyl)-CO}-[Phe(3-Cl)][aThr]P[Piperazine(2S-CO,4-Me)]A[Pro(4R-Me)]; ester 2-C)	3.16 ± 0.16 µM	99.5 ± 9.5%	–
Cc1ccc(NC(=O)N[C@@H](Cc2cccc(C)c2)C(=O)N[C@H]2COC(=O)[C@@H]3C[C@@H](C)CN3C(=O)[C@H](C)NC(=O)[C@@H]3CN(C)CCN3C(=O)[C@@H]3CCCN3C2=O)cc1 [Compound 15, (S)-3-(M-TOLYL)-2-(3-(P-TOLYL)UREIDO)-N-((6AS,12S,15AS,17R,21S,23AS)-2,17,21-TRIMETHYL-6,11,15,20,23-PENTAOXOOCTADECAHYDRO-2H,6H,11H,15H-PYRAZINO[2,1-I]DIPYRROLO[2,1-C:2′,1′-L][1]OXA[4,7,10,13]TETRAAZACYCLOHEXADECIN-12-YL)PROPANAMIDE] ({NH(4-Me-phenyl)-CO}-[Phe(3-Me)]SP[Piperazine(2S-CO,4-Me)]A[Pro(4R-Me)]; ester 2-C)	8.12 ± 0.2 µM	–	77.0 ± 6.1%
Cc1cccc(C[C@H](NC(=O)Nc2ccc(Cl)cc2F)C(=O)N[C@H]2COC(=O)[C@@H]3C[C@@H](C)CN3C(=O)[C@H](C)NC(=O)[C@@H]3CCCCN3C(=O)[C@@H]3C[C@H](N)CN3C2=O)c1 [Compound 12, (S)—N-((2R,6S,8AS,14AS,16S,20S,23AS)-16-AMINO-2,6-DIMETHYL-5,8,14,19,23-PENTAOXOOCTADECAHYDRO-1H,5H,14H,19H-PYRIDO[2,1-I]DIPYRROLO[2,1-C:2′,1′-L][1]OXA[4,7,10,13]TETRAAZACYCLOHEXADECIN-20-YL)-2-(3-(4-CHLORO-2-FLUOROPHENYL)UREIDO)-3-(M-TOLYL)PROPANAMIDE]	6.03 ± 0.3 µM	99.6 ± 0.0%	–
